Measurements: ChEMBL document CHEMBL1146649, “New highly active taxoids from 9 beta-dihydrobaccatin-9,10-acetals. Part 5” (2004)
≈ marks a conversion by molar mass, not a printed value.

Columns and labels:
B16 [1] = experiment: Antitumor activity of 11.9 mg/kg of intravenously administered compound against B16 melanoma BL6 cells implanted into mice, value reported is percent compared to control; assay type: functional, Mus musculus; conditions: route intravenous
Mus musculus [2] = experiment: Antitumor activity of 7.9 mg/kg of perorally administered compound against B16 melanoma BL6 cells implanted into mice, value reported is percent compared to control; assay type: functional; conditions: route oral
PC-6 [3] = experiment: Concentration required to inhibit human PC-6/VCR29-9 cell line growth by 50% at 72 hr exposure; assay type: functional; conditions: PC-6, 72 h
Mus musculus [4] = experiment: Number of mice died at 7.9 mg/kg of intravenous dose of compound among the total 6 mice tested; assay type: functional
PC-6 [5] = experiment: Concentration required to inhibit human PC-6 cell line growth by 50% at 72 hr continuous exposure; assay type: functional; conditions: PC-6, 72 h
Mus musculus [6] = experiment: Effective dose of intravenously administered compound against B16 melanoma BL6 cells implanted into mice; range is 11.9-17.8; assay type: functional; conditions: B16, iv
PC-6 [7] = experiment: Concentration required to inhibit human PC-6/VP1-1 cell line growth by 50% at 72 hr exposure; assay type: functional; conditions: PC-6, 72 h
Mus musculus [8] = experiment: Maximum rate of body weight loss after peroral administration of 26.7 mg/kg of compound in mice; assay type: functional; conditions: route oral
Mus musculus [9] = experiment: Antitumor activity of 26.7 mg/kg of perorally administered compound against B16 melanoma BL6 cells implanted into mice, value reported is percent compared to control; assay type: functional; conditions: route oral
Mus musculus [10] = experiment: Antitumor activity of 7.9 mg/kg of intravenously administered compound against B16 melanoma BL6 cells implanted into mice, value reported is percent compared to control; assay type: functional; conditions: route intravenous
Mus musculus [11] = experiment: Number of mice died at 26.7 mg/kg of peroral dose of compound among the total 6 mice tested; assay type: functional; conditions: route oral
Mus musculus [12] = experiment: Maximum rate of body weight loss after intravenous administration of 11.9 mg/kg of compound in mice; <0 indicates no weight loss; assay type: functional
Mus musculus [13] = experiment: Number of mice died at 11.9 mg/kg of intravenous dose, among the total 6 mice tested; assay type: functional
B16 [14] = experiment: Antitumor activity of 11.9 mg/kg of perorally administered compound against B16 melanoma BL6 cells implanted into mice, value reported is percent compared to control; assay type: functional, Mus musculus; conditions: route oral
Mus musculus [15] = experiment: Maximum rate of body weight loss after peroral administration of 11.9 mg/kg of compound in mice; <0 indicates no weight loss; assay type: functional; conditions: route oral
Mus musculus [16] = experiment: Maximum rate of body weight loss after intravenous administration of 17.8 mg/kg of compound in mice; assay type: functional
Mus musculus [17] = experiment: Effective dose of perorally administered compound against B16 melanoma BL6 cells implanted into mice; range is 11.9-17.8; assay type: functional; conditions: B16, po
Mus musculus [18] = experiment: Number of mice died at 11.9 mg/kg of peroral dose, among the total 6 mice tested; assay type: functional; conditions: route oral
Mus musculus [19] = experiment: Antitumor activity of 17.8 mg/kg of intravenously administered compound against B16 melanoma BL6 cells implanted into mice, value reported is percent compared to control; assay type: functional; conditions: route intravenous
Mus musculus [20] = experiment: Maximum rate of body weight loss after peroral administration of 7.9 mg/kg of compound in mice; assay type: functional; conditions: route oral
PC-12 = experiment: Concentration required to inhibit human PC-12 cell line growth by 50% at 72 hr continuous exposure; assay type: functional; conditions: PC-12, 72 h
Mus musculus [21] = experiment: Maximum rate of body weight loss after intravenous administration of 7.9 mg/kg of compound in mice; assay type: functional
B16 [22] = experiment: Antitumor activity of 17.8 mg/kg of perorally administered compound against B16 melanoma BL6 cells implanted into mice, value reported is percent compared to control; assay type: functional, Mus musculus; conditions: route oral
P388 = experiment: Concentration required to inhibit mouse P388 cell line growth by 50% at 72 hr continuous exposure; assay type: functional; conditions: P388, 72 h
Mus musculus [23] = experiment: Number of mice died at 26.7 mg/kg of intravenous dose of compound among the total 6 mice tested; assay type: functional
Mus musculus [24] = experiment: Maximum rate of body weight loss after peroral administration of 17.8 mg/kg of compound in mice; assay type: functional; conditions: route oral
Mus musculus [25] = experiment: Number of mice died at 17.8 mg/kg of peroral dose among the total 6 mice tested; assay type: functional; conditions: route oral
Mus musculus [26] = experiment: Number of mice died at 17.8 mg/kg of intravenous dose among the total 6 mice tested; assay type: functional
Mus musculus [27] = experiment: Number of mice died at 7.9 mg/kg of peroral dose of compound among the total 6 mice tested; assay type: functional; conditions: route oral
Mus musculus [28] = experiment: Number of mice died at 12.0 mg/kg of intravenous dose of compound among the total 6 mice tested; assay type: functional
Mus musculus [29] = experiment: Antitumor activity of 8.0 mg/kg of intravenously administered compound against B16 melanoma BL6 cells implanted into mice, value reported is percent compared to control; assay type: functional; conditions: route intravenous
Mus musculus [30] = experiment: Number of mice died at 27.0 mg/kg of peroral dose of compound among the total 6 mice tested; assay type: functional; conditions: route oral
Mus musculus [31] = experiment: Maximum rate of body weight loss after peroral administration of 8.0 mg/kg of compound in mice; <0 indicates no body weight loss; assay type: functional; conditions: route oral
Mus musculus [32] = experiment: Maximum rate of body weight loss after intravenous administration of 8.0 mg/kg of compound in mice; <0 indicates no body weight loss; assay type: functional
Mus musculus [33] = experiment: Number of mice died at 5.3 mg/kg of intravenous dose of compound among the total 6 mice tested; assay type: functional
Mus musculus [34] = experiment: Number of mice died at 8.0 mg/kg of intravenous dose of compound among the total 6 mice tested; assay type: functional
Mus musculus [35] = experiment: Effective dose of perorally administered compound against B16 melanoma BL6 cells implanted into mice; range is 12.0-27.0; assay type: functional; conditions: B16, po
Mus musculus [36] = experiment: Number of mice died at 12.0 mg/kg of peroral dose of compound among the total 6 mice tested; assay type: functional; conditions: route oral
Mus musculus [37] = experiment: Antitumor activity of 5.3 mg/kg of intravenously administered compound against B16 melanoma BL6 cells implanted into mice, value reported is percent compared to control; assay type: functional; conditions: route intravenous
Mus musculus [38] = experiment: Antitumor activity of 8.0 mg/kg of perorally administered compound against B16 melanoma BL6 cells implanted into mice, value reported is percent compared to control; assay type: functional; conditions: route oral
Mus musculus [39] = experiment: Maximum rate of body weight loss after peroral administration of 12.0 mg/kg of compound in mice; <0 indicates no body weight loss; assay type: functional; conditions: route oral
Mus musculus [40] = experiment: Number of mice died at 8.0 mg/kg of peroral dose of compound among the total 6 mice tested; assay type: functional; conditions: route oral
Mus musculus [41] = experiment: Number of mice died at 18.0 mg/kg of intravenous dose of compound among the total 6 mice tested; assay type: functional
Mus musculus [42] = experiment: Antitumor activity of 18.0 mg/kg of perorally administered compound against B16 melanoma BL6 cells implanted into mice, value reported is percent compared to control; assay type: functional; conditions: route oral
Mus musculus [43] = experiment: Antitumor activity of 12.0 mg/kg of intravenously administered compound against B16 melanoma BL6 cells implanted into mice, value reported is percent compared to control; assay type: functional; conditions: route intravenous
Mus musculus [44] = experiment: Maximum rate of body weight loss after peroral administration of 18.0 mg/kg of compound in mice; assay type: functional; conditions: route oral
Mus musculus [45] = experiment: Maximum rate of body weight loss after intravenous administration of 12.0 mg/kg of compound in mice; <0 indicates no body weight loss; assay type: functional
Mus musculus [46] = experiment: Effective dose of intravenously administered compound against B16 melanoma BL6 cells implanted into mice; range is 5.3-18.0; assay type: functional; conditions: B16, iv
Mus musculus [47] = experiment: Number of mice died at 18.0 mg/kg of peroral dose of compound among the total 6 mice tested; assay type: functional; conditions: route oral
Mus musculus [48] = experiment: Antitumor activity of 27.0 mg/kg of perorally administered compound against B16 melanoma BL6 cells implanted into mice, value reported is percent compared to control; assay type: functional; conditions: route oral
Mus musculus [49] = experiment: Antitumor activity of 12.0 mg/kg of perorally administered compound against B16 melanoma BL6 cells implanted into mice, value reported is percent compared to control; assay type: functional; conditions: route oral
Mus musculus [50] = experiment: Maximum rate of body weight loss after peroral administration of 27.0 mg/kg of compound in mice; assay type: functional; conditions: route oral
Mus musculus [51] = experiment: Antitumor activity of 18.0 mg/kg of intravenously administered compound against B16 melanoma BL6 cells implanted into mice, value reported is percent compared to control; assay type: functional; conditions: route intravenous
Mus musculus [52] = experiment: Maximum rate of body weight loss after intravenous administration of 5.3 mg/kg of compound in mice; <0 indicates no body weight loss; assay type: functional
Mus musculus [53] = experiment: Maximum rate of body weight loss after intravenous administration of 18.0 mg/kg of compound in mice; assay type: functional

Structure (SMILES): CC(=O)O[C@@]12CO[C@@H]1CC[C@@]1(C)[C@@H]3O[C@H](CN4CCOCC4)O[C@@H]3C3=C(C)[C@@H](OC(=O)[C@H](O)[C@@H](NC(=O)OC(C)(C)C)c4cccc(F)n4)C[C@@](O)([C@@H](OCc4ccccc4)[C@@H]12)C3(C)C
- IR (B16 [1]): 85.7%
- IR (Mus musculus [2]): -16.3%
- GI50 (PC-6 [3]): 0.96 ng/mL (≈ 1.05 nM)
- Mortality (Mus musculus [4]): 0
- GI50 (PC-6 [5]): 0.29 ng/mL (≈ 0.319 nM)
- ED50 (Mus musculus [6]): 17.8 mg/kg
- GI50 (PC-6 [7]): 13.7 ng/mL (≈ 15.1 nM)
- BWLmax (Mus musculus [8]): 16.6%
- IR (Mus musculus [9]): 97.4%
- IR (Mus musculus [10]): 28.6%
- Mortality (Mus musculus [11]): 1
- BWLmax (Mus musculus [12]): <0%
- Mortality (Mus musculus [13]): 0
- IR (B16 [14]): 65.9%
- BWLmax (Mus musculus [15]): <0%
- BWLmax (Mus musculus [16]): 11.9%
- ED50 (Mus musculus [17]): 17.8 mg/kg
- Mortality (Mus musculus [18]): 0
- IR (Mus musculus [19]): 94.7%
- BWLmax (Mus musculus [20]): 0.8%
- GI50 (PC-12): 0.14 ng/mL (≈ 0.154 nM)
- BWLmax (Mus musculus [21]): 0.3%
- IR (B16 [22]): 88.5%
- GI50 (P388): 0.2 ng/mL (≈ 0.22 nM)
- Mortality (Mus musculus [23]): 6
- BWLmax (Mus musculus [24]): 2.2%
- Mortality (Mus musculus [25]): 0
- Mortality (Mus musculus [26]): 0
- Mortality (Mus musculus [27]): 0

Structure (SMILES): CC(=O)O[C@@]12CO[C@@H]1C[C@H](O)[C@@]1(C)[C@@H]3OC(CN4CCOCC4)O[C@@H]3C3=C(C)[C@@H](OC(=O)[C@H](O)[C@@H](NC(=O)OC(C)(C)C)c4ccccn4)C[C@@](O)([C@@H](OCc4ccccc4)[C@H]21)C3(C)C (stereo not given in full)
- Mortality (Mus musculus [28]): 0
- IR (Mus musculus [29]): 87.2%
- Mortality (Mus musculus [30]): 0
- BWLmax (Mus musculus [31]): <0%
- GI50 (PC-6 [3]): 2.43 ng/mL (≈ 2.68 nM)
- GI50 (PC-6 [5]): 0.26 ng/mL (≈ 0.286 nM)
- BWLmax (Mus musculus [32]): <0%
- Mortality (Mus musculus [33]): 0
- Mortality (Mus musculus [34]): 0
- ED50 (Mus musculus [35]): 27 mg/kg
- Mortality (Mus musculus [36]): 0
- GI50 (PC-6 [7]): 19.3 ng/mL (≈ 21.3 nM)
- IR (Mus musculus [37]): 62.4%
- IR (Mus musculus [38]): 27.2%
- BWLmax (Mus musculus [39]): <0%
- Mortality (Mus musculus [40]): 0
- Mortality (Mus musculus [41]): 0
- IR (Mus musculus [42]): 93.3%
- IR (Mus musculus [43]): 94.4%
- BWLmax (Mus musculus [44]): 0.3%
- GI50 (PC-12): 0.13 ng/mL (≈ 0.143 nM)
- BWLmax (Mus musculus [45]): <0%
- ED50 (Mus musculus [46]): 18 mg/kg
- Mortality (Mus musculus [47]): 0
- GI50 (P388): 0.18 ng/mL (≈ 0.198 nM)
- IR (Mus musculus [48]): 97.3%
- IR (Mus musculus [49]): 84.9%
- BWLmax (Mus musculus [50]): 4.5%
- IR (Mus musculus [51]): 95.6%
- BWLmax (Mus musculus [52]): <0%
- BWLmax (Mus musculus [53]): 3.7%
